Test results: patent US11643474B2, “Peptide fusion protein” (KAGOSHIMA UNIVERSITY, priority 2018, dated 2023)

Experiments:
human IgG = assay: Affinity measurement to IgG by surface plasmon resonance (BIAcore T200); format: binding; conditions: ligand immobilized onto sensor chip, HBS-EP buffer pH 7.4
Protocol: The affinity analysis was performed by the following method. First, a solution containing equal amounts of 0.4 M EDC (1-ethyl-3-(3-dimethylaminopropyl)-carbodiimide) and 0.1 M sulfo-NHS (sulfo-N-hydroxysuccinimide)) was injected at a flow rate of […] onto a CMS sensor chip set in BIAcore T200 (GE healthcare), thereby activating the sensor chip. Then, under the condition of pH 5.5 (10 mM Na acetate), the purified protein (sfGFP-C-1Opt1) described above was immobilized onto the sensor chip. For the measurement, HBS-EP buffer (10 mM HEPES, 150 mM NaCl, 0.005% Tween 20, 3 mM EDTA, pH 7.4) was used, and the binding reaction was monitored by injecting 6.25, 12.5, 25, 50, 100, 200, and 400 nM human IgG for 180 seconds at a flow rate of […]. For measuring the dissociation reaction, only the buffer was injected for 600 seconds. The analysis of interaction parameters was performed using BIA evalution T100 software.
As Comparative Example 1, a scaffold protein (sfGFP having a His tag; DNA sequence: SEQ ID NO: 40, amino acid sequence: SEQ ID NO: 41) to which an IgG-binding peptide was not fused was expressed and purified in the same manner as in Example 1, and affinity was measured.
Proteins including two IgG-binding peptides, each consisting of the amino acid sequences represented by SEQ ID NO: 45, SEQ ID NO: 47, and SEQ ID NO: 49 (sfGFP-N C-2Opt1GS12 (DNA sequence: SEQ ID NO: 44), sfGFP-173 C-2Opt1 GS12 (DNA sequence: SEQ ID NO: 46), and sfGFP-173 C-2Opt1GS13 (DNA sequence: SEQ ID NO: 48)) were expressed and purified by the same method as in Example 1, and the affinity was measured.
As Comparative Example 2, the affinity measurement of the peptide (amino acid sequence: SEQ ID NO: 18) prepared by chemical synthesis was carried out in the same manner as in Example 1.

[1] = system: human serum-derived γ-globulin; assay: Dynamic binding capacity (DBC) measurement on ligand-immobilized NHS-activated prepack column; conditions: 1 mL column; 1 mg/mL γ-globulin at 1 mL/min; 10% breakthrough at 280 nm; equimolar ligand (7.3 mg protein or 0.5 mg peptide)
Protocol: To examine whether the IgG-binding peptide divalent fusion protein can be used as an affinity ligand for human antibody purification, the protein prepared in Example 2 (sfGFP-173 C-2Opt1 GS12) was immobilized on an NHS-activated prepack column (GE Healthcare), and the adsorption performance was evaluated. The protein-immobilized column was prepared by the following method. A syringe was used to feed the solution.
5 mL of 1 mM hydrochloric acid was fed to a NHS-activated prepack column with a volume of 1 mL to remove the isopropanol solution in the column. Then, 1 mL of a coupling solution (200 mM carbonate buffer, 500 mM sodium chloride, pH 8.3) containing 7.3 mg of an IgG-binding peptide fusion protein was fed and immobilized at room temperature for 1 hour. The unreacted NHS ester was blocked by adding tris-hydroxymethylaminomethane. Finally, 5 mL of an adsorption solution (20 mM phosphate buffer, 150 mM sodium chloride, pH 7.4) was fed and used for DBC measurement.
The DBC measurement was performed using a liquid chromatography instrument AKTAexplore (GE Healthcare). […] The DBC was determined from the amount of the sample fed until the value of an absorbance at 280 nm excluding the non-adsorbed component reached 10% of the absorbance of the entire sample. […]

Kd (human IgG; human IgG as analyte): 14 nM
DBC (dynamic binding capacity) [1]: 6.9 mg/mL-column
Sequence: GPDCAYHRGELVWCTFH [Comparative Example 2, reference compound]
kon (human IgG; 6.25-400 nM human IgG injected 180 s): 330000 M⁻¹ s⁻¹
koff (human IgG; buffer only injected 600 s for dissociation): 0.0048 s⁻¹
